Patent US8569267B2, “Tetracyclic tetrahydrofuran derivatives containing cyclic amine side chain” (Janssen Pharmaceutica, NV, priority 2005, dated 2013)

Tests used:
[1] = target: T1, NET (norepinephrine transporter) (Rattus norvegicus, UniProt Q63380); assay: In vitro determination of NET reuptake inhibition ([3H]Nixosetine binding, rat brain cortex); settings: rat brain cortex; for IC50: read-out: NET pIC50 (converted)
T1 construct: Cortex from rat brain was collected and homogenised; from tissue; host or cells: rat brain cortex
Description: In Vitro Determination of NET Reuptake Inhibition
Cortex from rat brain was collected and homogenised using an Ultra-Turrax T25 and a Dual homogeniser in ice-cold homogenising buffer containing Tris, NaCl and KCl (50 mM, 120 mM and 5 mM, respectively, pH 7.4) prior to dilution to an appropriate protein concentration optimised for specific and non-specific binding. […] Membrane-bound activity was detected by filtration through a Packard Filtermate harvester onto GF/B Unifilterplates, washed with ice-cold Tris-HCl buffer, containing NaCl and KCl (50 mM, 120 mM and 4 mM; pH 7.4; 6×0.5 ml). Filters were allowed to dry for 24 h before adding scintillation fluid. Scintillation fluid was allowed to saturate filters for 24 h before counting in a Topcount scintillation counter. Percentage specific bound and competition binding curves were calculated using S-Plus software (Insightful).

[2] = target: T2, human cloned 5-HT2C receptor, expressed in CHO cells (Homo sapiens, UniProt P28335); assay: In vitro binding affinity for 5-HT2C receptor ([3H]mesulergine radioligand binding); settings: human cloned 5-HT2C receptor; for IC50: read-out: 5-HT2C pIC50 (converted)
T2 construct: expressed in transfected cells; host or cells: CHO cells
T2 sequence (P28335 33-458): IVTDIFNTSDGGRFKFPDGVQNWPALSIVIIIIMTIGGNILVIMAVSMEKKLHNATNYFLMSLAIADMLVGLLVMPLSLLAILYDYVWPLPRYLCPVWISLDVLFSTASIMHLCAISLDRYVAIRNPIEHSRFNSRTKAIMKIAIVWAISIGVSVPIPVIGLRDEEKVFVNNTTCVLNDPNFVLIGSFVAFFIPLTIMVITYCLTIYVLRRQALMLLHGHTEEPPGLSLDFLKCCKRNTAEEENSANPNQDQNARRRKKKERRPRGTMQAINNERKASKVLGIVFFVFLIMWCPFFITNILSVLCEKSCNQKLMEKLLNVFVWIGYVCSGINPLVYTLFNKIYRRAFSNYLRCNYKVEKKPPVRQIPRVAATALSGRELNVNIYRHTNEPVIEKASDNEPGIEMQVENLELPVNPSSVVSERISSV
Description: In Vitro Binding Affinity for 5-HT2A and 5-HT2C Receptors
The interaction of the compounds of Formula (I) with 5-HT2A and 5-HT2C receptors was assessed in in vitro radioligand binding experiments. […] During the incubation, the radioligands bind to the receptor. When equilibrium of binding is reached, the receptor bound radioactivity is separated from the non-bound radioactivity, and the receptor bound activity is counted. The interaction of the test compounds with the receptors is assessed in competition binding experiments. Various concentrations of the test compound are added to the incubation mixture containing the tissue preparation and the radioligand. Binding of the radioligand will be inhibited by the test compound in proportion to its binding affinity and its concentration.

[3] = target: T3, human Dopamine D2L receptor (Homo sapiens, UniProt P14416); assay: In vitro binding affinity for human D2L receptor ([3H]Spiperone binding); settings: human D2L receptor-transfected CHO cell membranes; for IC50: read-out: D2L pIC50 (converted)
T3 construct: expressed in transfected cells; host or cells: CHO cells
Description: In Vitro Binding Affinity for Human D2L Receptor
Frozen membranes of human Dopamine D2L receptor-transfected CHO cells were thawed, briefly homogenised using an Ultra-Turrax T25 homogeniser and diluted in Tris-HCl assay buffer containing NaCl, CaCl2, MgCl2, KCl (50, 120, 2, 1, and 5 mM respectively, adjusted to pH 7.7 with HCl) to an appropriate protein concentration optimised for specific and non-specific binding. Radioligand [^3H]Spiperone (NEN, specific activity ˜70 Ci/mmol) was diluted in assay buffer at a concentration of 2 nmol/L. Prepared radioligand (50 μl), along with 50 μl of either the 10% DMSO control, Butaclamol (10^−6 mol/l final concentration), or compound of interest, was then incubated (30 min, 37° C.) with 400 μl of the prepared membrane solution. Membrane-bound activity was filtered through a Packard Filtermate harvester onto GF/B Unifilterplates and washed with ice-cold Tris-HCl buffer (50 mM; pH 7.7; 6×0.5 ml). Filters were allowed to dry before adding scintillation fluid and counting in a Topcount scintillation counter. Percentage specific bound and competition binding curves were calculated using S-Plus software (Insightful).

T3 sequence (P14416 whole entry): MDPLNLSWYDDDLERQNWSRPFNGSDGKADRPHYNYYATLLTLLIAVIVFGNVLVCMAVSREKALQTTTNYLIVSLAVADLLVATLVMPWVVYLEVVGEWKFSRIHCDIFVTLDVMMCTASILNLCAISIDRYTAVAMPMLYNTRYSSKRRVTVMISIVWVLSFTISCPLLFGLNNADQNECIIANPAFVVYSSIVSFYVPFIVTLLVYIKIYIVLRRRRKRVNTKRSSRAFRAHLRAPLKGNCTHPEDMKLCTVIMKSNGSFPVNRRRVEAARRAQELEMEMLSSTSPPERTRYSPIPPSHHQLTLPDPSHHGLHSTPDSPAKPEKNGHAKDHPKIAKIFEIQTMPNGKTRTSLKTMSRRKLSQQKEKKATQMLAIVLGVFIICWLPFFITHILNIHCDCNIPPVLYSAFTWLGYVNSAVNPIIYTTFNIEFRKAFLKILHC
T1 sequence (Q63380 1-617): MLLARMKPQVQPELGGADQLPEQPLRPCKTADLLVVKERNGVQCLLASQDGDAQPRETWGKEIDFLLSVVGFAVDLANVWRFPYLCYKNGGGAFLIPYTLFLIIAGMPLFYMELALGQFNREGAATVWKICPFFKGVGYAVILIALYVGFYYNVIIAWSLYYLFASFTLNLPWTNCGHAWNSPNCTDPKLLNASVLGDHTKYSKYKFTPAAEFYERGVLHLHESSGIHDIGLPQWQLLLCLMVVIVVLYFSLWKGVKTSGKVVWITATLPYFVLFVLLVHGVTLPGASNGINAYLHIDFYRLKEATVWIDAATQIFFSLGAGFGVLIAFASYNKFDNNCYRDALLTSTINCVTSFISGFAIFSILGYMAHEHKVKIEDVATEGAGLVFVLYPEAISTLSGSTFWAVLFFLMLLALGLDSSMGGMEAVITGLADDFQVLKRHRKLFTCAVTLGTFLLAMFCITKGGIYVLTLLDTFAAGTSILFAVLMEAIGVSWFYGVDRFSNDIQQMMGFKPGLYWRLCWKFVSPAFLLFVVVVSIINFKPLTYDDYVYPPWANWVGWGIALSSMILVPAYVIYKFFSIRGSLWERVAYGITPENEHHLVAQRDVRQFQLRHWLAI

Row | SMILES | NET pIC50 [1] | 5-HT2C pIC50 [2] | D2L pIC50 [3] | IC50 [1] [nM] | IC50 [2] [nM] | IC50 [3] [nM]
1 | O=C(O)C(=O)O.O[C@H]1CCN(C[C@H]2C[C@@H]3c4ccccc4Cc4ccc(F)cc4[C@@H]3O2)C1 [Compound 3] | 5.45 | 9.57 | 8.01 | – | – | –
2 | O=C(Cc1cccs1)NC1CCN(CC2CC3c4ccccc4Cc4ccc(F)cc4C3O2)CC1 (stereo not drawn) [Compound 240] | – | – | – | > 10000 | 5.75 | 4.57
3 | OCC1CCN(CC2CC3c4ccccc4Cc4ccc(F)cc4C3O2)CC1 (stereo not drawn) [Compound 151] | – | – | – | > 10000 | 1.23 | 1.35
4 | CC(C)c1ccccc1NC(=O)C1CCN(CC2CC3c4ccccc4Cc4ccc(F)cc4C3O2)CC1 (stereo not drawn) [Compound 185] | – | – | – | > 10000 | 10.7 | 15.5
5 | N#Cc1ccc(NC(=O)NC2CCN(CC3CC4c5ccccc5Cc5ccc(F)cc5C4O3)CC2)cc1 (stereo not drawn) [Compound 248] | – | – | – | 3800 | 6.17 | 2.09
6 | O=C(NCc1ccccn1)C1CCN(CC2CC3c4ccccc4Cc4ccc(F)cc4C3O2)CC1 (stereo not drawn) [Compound 197] | – | – | – | 8510 | 1 | 4.57
7 | O=C(Nc1ccc2c(c1)CCC2)NC1CCN(CC2CC3c4ccccc4Cc4ccc(F)cc4C3O2)CC1 (stereo not drawn) [Compound 238] | – | – | – | 7760 | 5.62 | 21.4
8 | CCOC(=O)NC1CCN(CC2CC3c4ccccc4Cc4ccc(F)cc4C3O2)CC1 (stereo not drawn) [Compound 211] | – | – | – | > 10000 | 5.75 | 5.89
9 | Fc1ccc2c(c1)C1OC(CN3CCC(NC(=S)Nc4cccnc4)CC3)CC1c1ccccc1C2 (stereo not drawn) [Compound 254] | – | – | – | 3470 | 20 | 12.3
10 | O=C(NCc1cccc(I)c1)C1CCN(CC2CC3c4ccccc4Cc4ccc(F)cc4C3O2)CC1 (stereo not drawn) [Compound 196] | – | – | – | 2750 | 5.01 | 14.1
11 | CC1c2ccccc2C2CC(CN3CCC(O)C3)OC2c2cc(F)ccc21.O=C(O)C(=O)O (mixture of isomers) [Compound 45] | 7.33 | 8.66 | 6.46 | – | – | –
12 | CCCOC(=O)NC1CCN(CC2CC3c4ccccc4Cc4ccc(F)cc4C3O2)CC1 (stereo not drawn) [Compound 212] | – | – | – | 7080 | 7.41 | 6.03
13 | COC(=O)NC1CCN(CC2CC3c4ccccc4Cc4ccc(F)cc4C3O2)CC1 (stereo not drawn) [Compound 210] | – | – | – | 7410 | 4.17 | 7.94
14 | CS(=O)(=O)CCCCNC(=S)NC1CCN(CC2CC3c4ccccc4Cc4ccc(F)cc4C3O2)CC1 (stereo not drawn) [Compound 251] | – | – | – | 3630 | 8.51 | 10.7
15 | O=C(C1CCN(CC2CC3c4ccccc4Cc4ccc(F)cc4C3O2)CC1)N1CC=C(c2ccccc2)CC1 (stereo not drawn) [Compound 207] | – | – | – | 6170 | 6.76 | 25.7
16 | CCOC(=O)C1CCN(C[C@H]2C[C@@H]3c4ccccc4Cc4ccc(F)cc4[C@@H]3O2)CC1 [Compound 162] | – | – | – | > 10000 | 1.02 | 3.63
17 | NCCNC(=S)NC1CCN(CC2CC3c4ccccc4Cc4ccc(F)cc4C3O2)CC1 (stereo not drawn) [Compound 256] | – | – | – | 6460 | 44.7 | 44.7
18 | CC(=O)N1CCC(C(=O)NC2CCN(CC3CC4c5ccccc5Cc5ccc(F)cc5C4O3)CC2)CC1 (stereo not drawn) [Compound 224] | – | – | – | > 10000 | 12.9 | 3.39

Row | SMILES | NET pIC50 [1] | 5-HT2C pIC50 [2] | D2L pIC50 [3] | IC50 [1] [nM] | IC50 [2] [nM] | IC50 [3] [nM]
19 | O=C(Nc1ccccc1)NC1CCN(CC2CC3c4ccccc4Cc4ccc(F)cc4C3O2)CC1 (stereo not drawn) [Compound 247] | – | – | – | 3550 | 2.69 | 3.31
20 | O=C(NC1CCN(CC2CC3c4ccccc4Cc4ccc(F)cc4C3O2)CC1)c1ccc(-c2ccccc2)cc1 (stereo not drawn) [Compound 237] | – | – | – | 7940 | 38 | 58.9
21 | CCCNC(=O)NC1CCN(C[C@H]2C[C@@H]3c4ccccc4Cc4ccc(F)cc4[C@@H]3O2)CC1 [Compound 244] | – | – | – | 8910 | 4.27 | 4.57
22 | O=C(NC1CCN(CC2CC3c4ccccc4Cc4ccc(F)cc4C3O2)CC1)c1cc2ccccc2s1 (stereo not drawn) [Compound 223] | – | – | – | 8510 | 23.4 | 17.8
23 | CN(C)C(=O)NC1CCN(CC2CC3c4ccccc4Cc4ccc(F)cc4C3O2)CC1 (stereo not drawn) [Compound 243] | – | – | – | > 10000 | 3.24 | 6.76
24 | O=C(O)C(=O)O.O[C@@H]1CCN(C[C@H]2C[C@@H]3c4ccccc4Cc4ccc(F)cc4[C@@H]3O2)C1 [Compound 2] | 6.34 | 9.58 | 7.86 | – | – | –
25 | O=C(NC1CCN(C[C@H]2C[C@@H]3c4ccccc4Cc4ccc(F)cc4[C@@H]3O2)CC1)OCc1ccccc1Cl [Compound 218] | – | – | – | 5620 | 5.75 | 10.2
26 | O=C(NC1CCN(CC2CC3c4ccccc4Cc4ccc(F)cc4C3O2)CC1)c1cccc(Cl)c1Cl (stereo not drawn) [Compound 228] | – | – | – | 7940 | 20.9 | 9.12
27 | CC(C)(C)CC(C)(C)NC(=O)NC1CCN(CC2CC3c4ccccc4Cc4ccc(F)cc4C3O2)CC1 (stereo not drawn) [Compound 245] | – | – | – | 3980 | 22.9 | 23.4
28 | O=C(NC1CCN(CC2CC3c4ccccc4Cc4ccc(F)cc4C3O2)CC1)c1c(F)c(F)c(F)c(F)c1F (stereo not drawn) [Compound 234] | – | – | – | 7240 | 21.9 | 8.71
29 | CC(C)(C)OC(=O)N1CCN(C(=O)C2CCN(CC3CC4c5ccccc5Cc5ccc(F)cc5C4O3)CC2)CC1 (stereo not drawn) [Compound 206] | – | – | – | 1700 | 9.33 | 40.7
30 | CC(=O)OC1CCN(C[C@H]2C[C@@H]3c4ccccc4Cc4ccc(F)cc4[C@@H]3O2)CC1 [Compound 166] | – | – | – | 7240 | < 1 | 2.09
31 | O=C(Nc1ccccc1Oc1ccccc1)NC1CCN(CC2CC3c4ccccc4Cc4ccc(F)cc4C3O2)CC1 (stereo not drawn) [Compound 250] | – | – | – | 3890 | 20.4 | 37.2
32 | COCCNC(=S)NC1CCN(CC2CC3c4ccccc4Cc4ccc(F)cc4C3O2)CC1 (stereo not drawn) [Compound 252] | – | – | – | 3240 | 6.61 | 11.5
33 | C#CCOC(=O)NC1CCN(CC2CC3c4ccccc4Cc4ccc(F)cc4C3O2)CC1 (stereo not drawn) [Compound 217] | – | – | – | 8910 | 4.07 | 4.9
34 | OCC1CC2CN(C[C@H]3C[C@@H]4c5ccccc5Cc5ccc(F)cc5[C@@H]4O3)CCC2O1 (stereo partly drawn) [Compound 274, [2R-(2α, 3aα, 12bβ)]-(2′RS,3a′RS, 7a′RS)[5-(11-fluoro-3,3a,8,12b-tetrahydro-2H-1-oxa-dibenzo[e,h]azulen-2-ylmethyl)-octahydro-furo[3,2-c]pyridin-2-yl]-methanol.oxalate (1:1)] | – | – | – | > 10000 | 0.912 | 16.2
35 | Cn1cccc1C(=O)NC1CCN(CC2CC3c4ccccc4Cc4ccc(F)cc4C3O2)CC1 (stereo not drawn) [Compound 221] | – | – | – | 7240 | 11 | 7.76
